The results in this text go back to patent US20250145665A1, “MACROCYCLIC PEPTIDES USEFUL AS MODULATORS OF TNF ALPHA” (Bristol-Myers Squibb Company, priority 2023, published 2025).

Starred links: 1 amine or outer side, 2 acyl side, 3 side chain; linkers in the order of their positions; H or OH if unused. Positions of bridges follow the written chain, without caps; N, C: chain ends. Non-standard residues stand in square brackets, D forms with d. Residues, ends and D or L forms follow the SMILES beside them. *: point of attachment. Bip(4'-(3-HOOC-benzamido)) = N[C@@H](Cc1ccc(-c2ccc(NC(=O)c3cccc(C(=O)O)c3)cc2)cc1)C(=O)O; Bip(4'-NHBz) = N[C@@H](Cc1ccc(-c2ccc(NC(=O)c3ccccc3)cc2)cc1)C(=O)O; Bip(4'-NH) = O=C([C@H](Cc1ccc(-c2ccc(N[*:3])cc2)cc1)N[*:1])[*:2]; Indazole3carbonyl(1-CH2COOH) = O=C(O)Cn1nc(C(=O)*)c2ccccc21; Bip(4'-COOH) = N[C@@H](Cc1ccc(-c2ccc(C(=O)O)cc2)cc1)C(=O)O; X63 = N=C(NCCC[C@@H](N[*:1])C(=O)[*:2])NCCc1cccc(O)c1; X51 = N=C(NCCC[C@@H](N[*:1])C(=O)[*:2])NCCc1ccccc1; Ala(morpholin-4-yl) = N[C@@H](CN1CCOCC1)C(=O)O; Benzoyl(3-OCH2COOH) = O=C(O)COc1cccc(C(=O)*)c1; Phe(3-CONH2) = NC(=O)c1cccc(C[C@H](N)C(=O)O)c1; Bip = N[C@@H](Cc1ccc(-c2ccccc2)cc1)C(=O)O; Tiq1c(1S) = O=C(O)[C@H]1NCCc2ccccc21; 2Pal = N[C@@H](Cc1ccccn1)C(=O)O; Tic = O=C(O)[C@@H]1Cc2ccccc2CN1; Cha = N[C@@H](CC1CCCCC1)C(=O)O; Tle = CC(C)(C)[C@H](N)C(=O)O; Aze = O=C(O)[C@@H]1CCN1; Sar = CNCC(=O)O Some results are limits rather than exact numbers.

In one assay the target is TNFα (Homo sapiens, UniProt P01375). The assay is described as follows: TNF-Induced HEK-Blue Assay. The assay is classed as cell-based.
TNFα, sequence (P01375 77-233 limits assumed): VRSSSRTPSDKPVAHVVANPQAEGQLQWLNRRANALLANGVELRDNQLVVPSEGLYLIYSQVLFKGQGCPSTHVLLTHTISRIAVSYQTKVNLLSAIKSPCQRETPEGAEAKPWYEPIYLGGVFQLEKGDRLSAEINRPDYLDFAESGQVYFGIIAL
Conditions: not given
Molecule `CC(C)C[C@@H]1NC(=O)[C@H](CCCNC(=N)N)NC(=O)[C@H](C(C)C)NC(=O)[C@@H]2CCCN2C(=O)[C@H](C(C)C)NC(=O)[C@@H](CCCNC(=N)NCCc2ccccc2)NC(=O)[C@H](CC(=O)O)NC(=O)[C@@H]2CCCN2C(=O)CN(C)C(=O)[C@H](Cc2ccc(-c3ccc(NC(=O)c4nn(CC(=O)O)c5ccccc45)cc3)cc2)NC(=O)[C@H](Cc2ccc(-c3ccccc3)cc2)NC(=O)[C@H](CN2CCOCC2)NC(=O)CSC[C@@H](C(=O)NCC(N)=O)NC1=O` [Example 365] ({CH2CO}-[Ala(morpholin-4-yl)][Bip][Bip(4'-NH)](Indazole3carbonyl(1-CH2COOH))[Sar]PD[X51]VPVRLCG-NH2; thioether N-13) registered an IC50 of less than 50 nM.

Take `CC(C)C[C@@H]1NC(=O)[C@H](CCCNC(=N)N)NC(=O)[C@H](C(C)C)NC(=O)[C@@H]2CCCN2C(=O)[C@H](C(C)C)NC(=O)[C@@H](CCCNC(=N)NCCc2cccc(O)c2)NC(=O)[C@H](CC(=O)O)NC(=O)[C@@H]2CCCN2C(=O)CN(C)C(=O)[C@H](Cc2ccc(-c3ccc(NC(=O)c4nn(CC(=O)O)c5ccccc45)cc3)cc2)NC(=O)[C@H](Cc2ccc(-c3ccccc3)cc2)NC(=O)[C@H](CN2CCOCC2)NC(=O)CSC[C@@H](C(=O)NCC(N)=O)NC1=O` [Example 366] ({CH2CO}-[Ala(morpholin-4-yl)][Bip][Bip(4'-NH)](Indazole3carbonyl(1-CH2COOH))[Sar]PD[X63]VPVRLCG-NH2; thioether N-13): the IC50 is less than 50 nM.

`CC[C@H](C)[C@@H]1NC(=O)[C@@H]2CCCN2C(=O)[C@H]([C@@H](C)CC)NC(=O)[C@@H](CCCNC(=N)N)NC(=O)[C@H](CC(=O)O)NC(=O)[C@H](Cc2ccccn2)NC(=O)CN(C)C(=O)[C@H](Cc2ccc(-c3ccc(NC(=O)c4ccccc4)cc3)cc2)NC(=O)[C@H](Cc2ccc(-c3ccccc3)cc2)NC(=O)[C@H](C(C)(C)C)NC(=O)CSC[C@@H](C(=O)NCC(N)=O)NC(=O)[C@H](CC(C)C)NC(=O)[C@H](Cc2cccc(C(N)=O)c2)NC1=O` [Example 367] ({CH2CO}-[Tle][Bip][Bip(4'-NHBz)][Sar][2Pal]D[dR]IPI[Phe(3-CONH2)]LCG-NH2; thioether N-13): the concentration for half-maximal inhibition (IC50) was less than 50 nM.

Consider `CC[C@H](C)[C@@H]1NC(=O)[C@@H](CCCNC(=N)N)NC(=O)[C@H](CC(=O)O)NC(=O)[C@H](Cc2cnc[nH]2)NC(=O)CN(C)C(=O)[C@H](Cc2ccc(-c3ccc(NC(=O)c4ccccc4)cc3)cc2)NC(=O)[C@H](Cc2ccc(-c3ccc(C(=O)O)cc3)cc2)NC(=O)[C@H](CC2CCCCC2)NC(=O)CSC[C@@H](C(=O)NCC(N)=O)NC(=O)[C@H](CC(C)C)NC(=O)[C@H](Cc2cnc[nH]2)NC(=O)[C@H](C(C)C)NC(=O)[C@@H]2Cc3ccccc3CN2C1=O` [Example 370] ({CH2CO}-[Cha][Bip(4'-COOH)][Bip(4'-NHBz)][Sar]HD[dR]I[Tic]VHLCG-NH2; thioether N-13), for which the IC50 was less than 50 nM.

As for `CC[C@H](C)[C@@H]1NC(=O)[C@@H](CCCNC(=N)N)NC(=O)[C@H](CC(=O)O)NC(=O)[C@H](Cc2cnc[nH]2)NC(=O)CN(C)C(=O)[C@H](Cc2ccc(-c3ccc(NC(=O)c4ccccc4)cc3)cc2)NC(=O)[C@H](Cc2ccc(-c3ccc(C(=O)O)cc3)cc2)NC(=O)[C@H](CC2CCCCC2)NC(=O)CSC[C@@H](C(=O)NCC(N)=O)NC(=O)[C@H](CC(C)C)NC(=O)[C@H](Cc2cnc[nH]2)NC(=O)[C@H](C(C)C)NC(=O)[C@@H]2c3ccccc3CCN2C1=O` [Example 373] ({CH2CO}-[Cha][Bip(4'-COOH)][Bip(4'-NHBz)][Sar]HD[dR]I[Tiq1c(1S)]VHLCG-NH2; thioether N-13), the IC50 was less than 50 nM.

In the case of `CC[C@H](C)[C@@H]1NC(=O)[C@@H](CCCNC(=N)N)NC(=O)[C@H](CC(=O)O)NC(=O)[C@H](Cc2cnc[nH]2)NC(=O)CN(C)C(=O)[C@H](Cc2ccc(-c3ccc(NC(=O)c4cccc(OCC(=O)O)c4)cc3)cc2)NC(=O)[C@H](Cc2ccc(-c3ccc(C(=O)O)cc3)cc2)NC(=O)[C@H](CC2CCCCC2)NC(=O)CSC[C@@H](C(=O)NCC(N)=O)NC(=O)[C@H](CC(C)C)NC(=O)[C@H](Cc2cnc[nH]2)NC(=O)[C@H](C(C)C)NC(=O)[C@@H]2c3ccccc3CCN2C1=O` [Example 375] ({CH2CO}-[Cha][Bip(4'-COOH)][Bip(4'-NH)](Benzoyl(3-OCH2COOH))[Sar]HD[dR]I[Tiq1c(1S)]VHLCG-NH2; thioether N-13), the IC50 is less than 50 nM.

Molecule `CC[C@H](C)[C@@H]1NC(=O)[C@@H]2CCN2C(=O)[C@H]([C@@H](C)CC)NC(=O)[C@@H](CCCNC(=N)N)NC(=O)[C@H](CC(=O)O)NC(=O)[C@H](Cc2ccc(O)cc2)NC(=O)CN(C)C(=O)[C@H](Cc2ccc(-c3ccc(NC(=O)c4ccccc4)cc3)cc2)NC(=O)[C@H](Cc2ccc(-c3ccccc3)cc2)NC(=O)[C@H](C(C)(C)C)NC(=O)CSC[C@@H](C(=O)NCC(N)=O)NC(=O)[C@H](CC(C)C)NC(=O)[C@H](Cc2ccc(O)cc2)NC1=O` [Example 376] ({CH2CO}-[Tle][Bip][Bip(4'-NHBz)][Sar]YD[dR]I[Aze]IYLCG-NH2; thioether N-13) displayed an IC50 of 50 to 200 nM.

Staying with this assay, now noted: HEK-Blue-CD40L cells, NF-kB-driven secreted alkaline phosphatase reporter; TNFα 0.5 ng/ml; 18 h; read-out: TNF induced HEK-Blue assay IC50 value.
Take `CC[C@H](C)[C@@H]1NC(=O)[C@@H]2CCCN2C(=O)[C@H]([C@@H](C)CC)NC(=O)[C@@H](CCCNC(=N)N)NC(=O)[C@H](CC(=O)O)NC(=O)[C@H](Cc2ccccn2)NC(=O)CN(C)C(=O)[C@H](Cc2ccc(-c3ccc(NC(=O)c4cccc(C(=O)O)c4)cc3)cc2)NC(=O)[C@H](Cc2ccc(-c3ccccc3)cc2)NC(=O)[C@H](C(C)(C)C)NC(=O)CSC[C@@H](C(=O)NCC(N)=O)NC(=O)[C@H](CC(C)C)NC(=O)[C@H](Cc2cccc(C(N)=O)c2)NC1=O` [Example 368] ({CH2CO}-[Tle][Bip][Bip(4'-(3-HOOC-benzamido))][Sar][2Pal]D[dR]IPI[Phe(3-CONH2)]LCG-NH2; thioether N-13): the IC50 was less than 50 nM.

In the case of `CC(C)C[C@@H]1NC(=O)[C@H](Cc2ccc(O)cc2)NC(=O)[C@H](C(C)C)NC(=O)[C@@H]2Cc3ccccc3CN2C(=O)[C@H](C(C)C)NC(=O)[C@@H](CCCNC(=N)N)NC(=O)[C@H](CC(=O)O)NC(=O)[C@@H]2CCCN2C(=O)CN(C)C(=O)[C@H](Cc2ccc(-c3ccc(NC(=O)c4cccc(OCC(=O)O)c4)cc3)cc2)NC(=O)[C@H](Cc2ccc(-c3ccc(C(=O)O)cc3)cc2)NC(=O)[C@H](CC2CCCCC2)NC(=O)CSC[C@@H](C(=O)NCC(N)=O)NC1=O` [Example 369] ({CH2CO}-[Cha][Bip(4'-COOH)][Bip(4'-NH)](Benzoyl(3-OCH2COOH))[Sar]PD[dR]V[Tic]VYLCG-NH2; thioether N-13), the IC50 lay within 50 to 200 nM.

Take `CC[C@H](C)[C@@H]1NC(=O)[C@@H](CCCNC(=N)N)NC(=O)[C@H](CC(=O)O)NC(=O)[C@H](Cc2cnc[nH]2)NC(=O)CN(C)C(=O)[C@H](Cc2ccc(-c3ccc(NC(=O)c4cccc(C(=O)O)c4)cc3)cc2)NC(=O)[C@H](Cc2ccc(-c3ccc(C(=O)O)cc3)cc2)NC(=O)[C@H](CC2CCCCC2)NC(=O)CSC[C@@H](C(=O)NCC(N)=O)NC(=O)[C@H](CC(C)C)NC(=O)[C@H](Cc2cnc[nH]2)NC(=O)[C@H](C(C)C)NC(=O)[C@@H]2Cc3ccccc3CN2C1=O` [Example 371] ({CH2CO}-[Cha][Bip(4'-COOH)][Bip(4'-(3-HOOC-benzamido))][Sar]HD[dR]I[Tic]VHLCG-NH2; thioether N-13): the IC50 was less than 50 nM.

Regarding `CC[C@H](C)[C@@H]1NC(=O)[C@@H](CCCNC(=N)N)NC(=O)[C@H](CC(=O)O)NC(=O)[C@H](Cc2cnc[nH]2)NC(=O)CN(C)C(=O)[C@H](Cc2ccc(-c3ccc(NC(=O)c4cccc(OCC(=O)O)c4)cc3)cc2)NC(=O)[C@H](Cc2ccc(-c3ccc(C(=O)O)cc3)cc2)NC(=O)[C@H](CC2CCCCC2)NC(=O)CSC[C@@H](C(=O)NCC(N)=O)NC(=O)[C@H](CC(C)C)NC(=O)[C@H](Cc2cnc[nH]2)NC(=O)[C@H](C(C)C)NC(=O)[C@@H]2Cc3ccccc3CN2C1=O` [Example 372] ({CH2CO}-[Cha][Bip(4'-COOH)][Bip(4'-NH)](Benzoyl(3-OCH2COOH))[Sar]HD[dR]I[Tic]VHLCG-NH2; thioether N-13), the IC50 is less than 50 nM.

Consider `CC[C@H](C)[C@@H]1NC(=O)[C@@H](CCCNC(=N)N)NC(=O)[C@H](CC(=O)O)NC(=O)[C@H](Cc2cnc[nH]2)NC(=O)CN(C)C(=O)[C@H](Cc2ccc(-c3ccc(NC(=O)c4cccc(C(=O)O)c4)cc3)cc2)NC(=O)[C@H](Cc2ccc(-c3ccc(C(=O)O)cc3)cc2)NC(=O)[C@H](CC2CCCCC2)NC(=O)CSC[C@@H](C(=O)NCC(N)=O)NC(=O)[C@H](CC(C)C)NC(=O)[C@H](Cc2cnc[nH]2)NC(=O)[C@H](C(C)C)NC(=O)[C@@H]2c3ccccc3CCN2C1=O` [Example 374] ({CH2CO}-[Cha][Bip(4'-COOH)][Bip(4'-(3-HOOC-benzamido))][Sar]HD[dR]I[Tiq1c(1S)]VHLCG-NH2; thioether N-13), for which the IC50 is less than 50 nM.

Consider `CC[C@H](C)[C@@H]1NC(=O)[C@@H]2CCN2C(=O)[C@H]([C@@H](C)CC)NC(=O)[C@@H](CCCNC(=N)N)NC(=O)[C@H](CC(=O)O)NC(=O)[C@H](Cc2ccc(O)cc2)NC(=O)CN(C)C(=O)[C@H](Cc2ccc(-c3ccc(NC(=O)c4cccc(C(=O)O)c4)cc3)cc2)NC(=O)[C@H](Cc2ccc(-c3ccccc3)cc2)NC(=O)[C@H](C(C)(C)C)NC(=O)CSC[C@@H](C(=O)NCC(N)=O)NC(=O)[C@H](CC(C)C)NC(=O)[C@H](Cc2ccc(O)cc2)NC1=O` [Example 377] ({CH2CO}-[Tle][Bip][Bip(4'-(3-HOOC-benzamido))][Sar]YD[dR]I[Aze]IYLCG-NH2; thioether N-13), for which the half-inhibitory concentration (IC50) fell in the range of 50 to 200 nM.

On to `CC[C@H](C)[C@@H]1NC(=O)[C@@H]2CCN2C(=O)[C@H]([C@@H](C)CC)NC(=O)[C@@H](CCCNC(=N)N)NC(=O)[C@H](CC(=O)O)NC(=O)[C@H](Cc2ccc(O)cc2)NC(=O)CN(C)C(=O)[C@H](Cc2ccc(-c3ccc(NC(=O)c4cccc(OCC(=O)O)c4)cc3)cc2)NC(=O)[C@H](Cc2ccc(-c3ccccc3)cc2)NC(=O)[C@H](C(C)(C)C)NC(=O)CSC[C@@H](C(=O)NCC(N)=O)NC(=O)[C@H](CC(C)C)NC(=O)[C@H](Cc2ccc(O)cc2)NC1=O` [Example 378] ({CH2CO}-[Tle][Bip][Bip(4'-NH)](Benzoyl(3-OCH2COOH))[Sar]YD[dR]I[Aze]IYLCG-NH2; thioether N-13), for which the IC50 was less than 50 nM.

By IC50 is commonly meant the midpoint of a concentration-inhibition curve.
